Tests used:
[1] = target: T1, His-tagged recombinant human IKK-β (Homo sapiens, UniProt O14920); assay: IKK activity assay (K-LISA IKK-β-Inhibitor Screening Kit); type: biochemical; conditions: DMY at 50 μM and 100 μM; FIG. 4A
T1 construct: His; purchased Calbiochem
T1 sequence (O14920 1-756): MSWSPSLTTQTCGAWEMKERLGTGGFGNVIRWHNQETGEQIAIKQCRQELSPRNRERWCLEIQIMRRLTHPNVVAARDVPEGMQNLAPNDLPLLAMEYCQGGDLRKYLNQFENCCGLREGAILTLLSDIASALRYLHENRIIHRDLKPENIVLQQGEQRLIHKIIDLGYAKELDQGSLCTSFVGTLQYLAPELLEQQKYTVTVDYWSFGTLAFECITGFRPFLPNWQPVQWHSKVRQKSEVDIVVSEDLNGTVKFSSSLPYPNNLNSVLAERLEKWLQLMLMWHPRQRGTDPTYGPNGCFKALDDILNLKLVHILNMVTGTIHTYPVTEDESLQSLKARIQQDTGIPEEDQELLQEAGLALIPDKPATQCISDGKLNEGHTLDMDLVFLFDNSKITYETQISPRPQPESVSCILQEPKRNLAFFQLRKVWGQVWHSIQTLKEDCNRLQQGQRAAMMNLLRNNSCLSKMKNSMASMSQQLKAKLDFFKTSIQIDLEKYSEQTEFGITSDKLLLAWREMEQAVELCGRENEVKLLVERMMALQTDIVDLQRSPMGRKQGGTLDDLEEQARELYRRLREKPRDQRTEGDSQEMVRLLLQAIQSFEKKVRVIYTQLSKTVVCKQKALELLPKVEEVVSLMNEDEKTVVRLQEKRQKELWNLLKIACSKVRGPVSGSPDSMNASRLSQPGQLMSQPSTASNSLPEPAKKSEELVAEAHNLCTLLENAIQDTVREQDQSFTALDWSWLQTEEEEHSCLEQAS
Method: The direct inhibitory effect of DMY on IKK activity was examined by using K-LISA™ IKK-β-Inhibitor Screening Kit (Calbiochem). Both the glutathione-S-transferase (GST)-IκB-α substrate and His-tagged recombinant human IKK-β were incubated with or without DMY in the wells of a glutathione-coated 96-well plate. The reaction was terminated with the addition of kinase stop solution after being incubated at 30° C. for 30 minutes. Then, anti-Phospho IκB-α (Ser32/Ser36) antibody was used to determine the phosphorylated GST-IκB-α substrate, and the horse radish peroxidase (HRP)-conjugated color was developed by 3,3′,5,5′-tetramethylbenzidine (TMB) substrate. ELISA stop solution was used to stop the color development and the absorbance was measured at 450 nm the wavelength at which was directly related to the level of IKK activity.

[2] = tested on: isolated human T lymphocytes; assay: T cells proliferation assay (BrdU ELISA); type: cell-based; conditions: stimulated with anti-OKT 3/anti-CD28 or PMA/ionomycin, 72 hours; FIGS. 2A and 2B
Method: The isolated human T lymphocytes (1×10^5 cells/well) were stimulated with anti-OKT 3/anti-CD28 antibodies or PMA/ionomycin (P/I) in the presence or absence of DMY for 72 hours.
5-bromo-2′-deoxy-uridine (BrdU, Roche) was added to the cells at the 14th hour before the end of stimulation and it could be incorporated into the DNA of the growing cells during the labeling period. The amount of BrdU incorporated into DNA was quantified as an indicator of cell proliferation. BrdU was determined by ELISA according to manufacturer's instructions.

[3] = tested on: ear edema induced by dinitrofluorobenzene in male ICR mice; assay: Delay-type hypersensitivity test (DNFB-induced ear edema); type: in vivo
Method: Male mice were sensitized through topical application of 20 μl of 0.5% (v/v) dinitrofluorobenzene (DNFB) in acetone onto the shaved abdomen on days 1 and 2. Challenge was then preformed in day 6 by applying DNFB (20 μl, 0.5%, v/v) on the left inner and outer ear surfaces of mice. DMY (at doses of 0.5, 1, 2 mg/ear) and DEX (0.025 mg/ear, Sigma-Aldrich) dissolved in acetone was topically applied (20 μl) to the ears at 2nd, 24th, 48th, and 72nd hour after the challenge. The mice were sacrificed by cervical dislocation, and then the same area of the ears was punched from each animal. Spleens and thymuses were isolated and weighted. The ear edema was calculated according to the differences between the weight of the right and left ears. The control group was treated only with DNFB.

[4] = tested on: IKK-α/β phosphorylation in human T lymphocytes; assay: Measurement of the phosphorylation of IKK α/β (Western blot); type: cell-based; conditions: mediated by PMA/ionomycin or anti-OKT-3/anti-CD28; FIG. 4B
Method: Human T lymphocytes (4×10^6/well) were pretreated with DMY in different concentrations for 60 minutes and then the cells were stimulated with PMA/ionomycin for 30 minutes.
The whole-cell lysates were prepared by lysing the harvested T cells with lysis buffer (50 mM Tris-HCl, pH 7.5, 250 mM NaCl, 5 mM EDTA, 1 mM DTT, 1% Triton, 50 mM NaF, 1 mM sodium orthovanadate, 0.5 mM PMSF and 1× protease inhibitor mix, Roche). Protein concentrations were determined by using Bio-Rad Protein assay (Bio-Rad Laboratories, Inc. Hercules, Calif.). Equal amount of nuclear proteins or whole-cell lysates were analyzed by 10% SDS-polyacrylamide gel electrophoresis (SDS-PAGE). After electrophoresis, the proteins were electro-transferred to the nitrocellulose membranes. After proteins were transferred, the membranes were blocked by 5% dried milk for 60 minutes and then washed three times for 5 minutes in washing interval with TBS-T (Tween-20, 0.05%). The membranes were then incubated with phosphorylation-IKK-α/β primary antibodies overnight at 4° C. and then washed three times with TBS-T. Afterwards, the membranes were incubated again with HRP-conjugated secondary antibodies for 60 minutes. The blots were developed using the enhanced chemiluminescence (ECL, Amersham Bioscience).

[5] = DTHT mice, topical treatment, FIGS. 9B and C

Compound: O=C1c2c(O)cc(O)cc2O[C@H](c2cc(O)c(O)c(O)c2)[C@H]1O [DMY, dihydromyricetin]
- activity of IKK-β [1]: significantly inhibited the activity of IKK-β
- T cell proliferation [2]: block T cell proliferation
- body weight ([3]; DTHT mice, topical treatment): only a small decrease
- spleen weight [3, 5]: increase
- thymus weight [3, 5]: increase
- ear edema ([3]; topical, 0.5, 1, 2 mg/ear at 2nd, 24th, 48th, 72nd hour after challenge, FIG. 9A): significantly and dose-dependently inhibit the ear edema
- IKK-α/β phosphorylation [4]: inhibit IKK-ca/3 phosphorylation
